Patent publication US20240101563A1, “NOVEL COMPOUNDS” (AC Immune SA, priority 2022, published 2024)
Read-outs that look alike come from different tables or passages of the source.

Test system: NLRP3 inflammasome pathway
Experiment: NLRP3 inflammasome pathway activation assay, MSU stimulation, IL-1β HTRF
Assay type: cell-based
Details: Table 7, PMA-differentiated, LPS-primed cells, MSU 200 μg/mL for 3 h, IL-1β release, read-out: IC50 Human monocyte-like cells MSU
Experimental: The following assays were used to determine the inhibitory activity of test compounds on the NLRP3 inflammasome pathway using common stimuli Nigericin (Invivogen) or monosodium urate crystals (MSU) (Invivogen).
Human monocyte-like cells were cultured in RPMI-1640 Glutamax medium supplemented with 10% heat inactivated FBS (Fetal Bovine Serum) and 50 U/mL penicillin-streptomycin (Life Technologies).
Human monocyte-like cells were seeded at 25000 per well in a 384-well plate and were differentiated overnight into macrophages with 10 ng/mL PMA (Phorbol Myristate Acetate). The following day, medium containing 10 ng/mL LPS (Lipopolysaccharide) was added. After 3 hours of LPS priming, concentrations of test compound in the range from […] were added 30 min prior to NLRP3 inflammasome pathway stimulation with Nigericin 3.75 μM or MSU 200 μg/mL for 3 h.
For IL-1p quantification, supernatants were analyzed using HTRF kit according to the manufacturer's instructions (Cisbio 62HIL1BPEH). Briefly, in a 384-well ProxiPlate™ microplate, 8 μl of sample was mixed, with 5 μl of Anti-IL1β Cryptate antibody (40×) and Anti-IL1β XL antibody (40×). Then, incubated overnight at RT. Reading was done using an EnVision Reader (PerkinElmer).
IC50 (concentration corresponding to 50% inhibition) were determined using GraphPad Prism 9.

| IC50 (Homo sapiens, 3 h) | Structure (SMILES) | IC50 |
| --- | --- | --- |
| 100 to 1000 nM | Cc1cc(Cl)cc(O)c1-c1nc2nc(NC3CCC(F)(F)C3)ccc2n1C (racemic) [Example 11, 5-chloro-2-(5-((3,3-difluorocyclopentyl)amino)-1-methyl-1H-imidazo[4,5-b]pyridin-2-yl)-3-methylphenol] | – |
| 100 to 1000 nM | Cc1cc(C(F)(F)F)cc(O)c1-c1nc2nc(OC3CCN(C)C3)ncc2n1C (racemic) [Example 55, 3-methyl-2-(7-methyl-2-((1-methylpyrrolidin-3-yl)oxy)-7H-purin-8-yl)-5-(trifluoromethyl)phenol] | – |
| < 100 nM | Cc1cc(Cl)cc(O)c1-c1nc2nc(N3CCC4CCN(C)CC43)cnc2n1C (racemic) [Example 76, 5-chloro-3-methyl-2-[1-methyl-5-(6-methyl-3,3a,4,5,7,7a-hexahydro-2H-pyrrolo[2,3-c]pyridin-1-yl)imidazo[4,5-b]pyrazin-2-yl]phenol] | – |
| < 100 nM | Cc1cc(Cl)cc(O)c1-c1nc2nc(N3CC[C@@H]4CCN(C)C[C@@H]43)cnc2n1C (relative stereo) [Example 77A, 5-chloro-3-methyl-2-[1-methyl-5-[rel-(3aS,7aR)-6-methyl-3,3a,4,5,7,7a-hexahydro-2H-pyrrolo[2,3-c]pyridin-1-yl]imidazo[4,5-b]pyrazin-2-yl]phenol] | – |

The remaining lines, values behind:

| Structure (SMILES) | IC50 (Homo sapiens, 3 h) | IC50 |
| --- | --- | --- |
| Cn1c(-c2ccc(C(F)(F)F)cc2O)nc2nc(N[C@@H]3CCC[C@@H](O)C3)ccc21 (relative stereo) [Example 22A, 2-(5-((3-hydroxycyclohexyl)amino)-1-methyl-1H-imidazo[4,5-b]pyridin-2-yl)-5-(trifluoromethyl)phenol] | 100 to 1000 nM | – |
| Cc1cc(Cl)cc(O)c1-c1nc2nc(N3CC[C@@H]4CCN(C)C[C@@H]43)cnc2n1C (relative stereo) [Example 77B, 5-chloro-3-methyl-2-[1-methyl-5-[rel-(3aS,7aR)-6-methyl-3,3a,4,5,7,7a-hexahydro-2H-pyrrolo[2,3-c]pyridin-1-yl]imidazo[4,5-b]pyrazin-2-yl]phenol] | – | < 100 nM |
| CCn1c(-c2c(C)cc(C(F)(F)F)cc2O)nc2nc(NC3CCN(C)C3)ccc21 (single isomer, unassigned) [Example 8, 2-(1-ethyl-5-((1-methylpyrrolidin-3-yl)amino)-1H-imidazo[4,5-b]pyridin-2-yl)-3-methyl-5-(trifluoromethyl)phenol] | < 100 nM | – |
| CC(C)n1c(-c2ccc(C(F)(F)F)cc2O)nc2nc(NC3CCN(C)C3)ccc21 (single isomer, unassigned) [Example 10A, 2-(1-isopropyl-5-((1-methylpyrrolidin-3-yl)amino)-1H-imidazo[4,5-b]pyridin-2-yl)-5-(trifluoromethyl)phenol] | 100 to 1000 nM | – |
| Cc1cc(C(F)(F)F)cc(O)c1-c1nc2nc(NC3CCN(C)C3)ccc2n1C (single isomer, unassigned) [Example 18A, 3-methyl-2-(1-methyl-5-((1-methylpyrrolidin-3-yl)amino)-1H-imidazo[4,5-b]pyridin-2-yl)-5-(trifluoromethyl)phenol] | < 100 nM | – |
| Cc1cc(C(F)(F)F)cc(O)c1-c1nc2nc(NC3CCN(C)C3)ccc2n1C (single isomer, unassigned) [Example 18B, 3-methyl-2-(1-methyl-5-((1-methylpyrrolidin-3-yl)amino)-1H-imidazo[4,5-b]pyridin-2-yl)-5-(trifluoromethyl)phenol] | – | 100 to 1000 nM |
| CN1CC[C@@H](Nc2ccc3c(n2)nc(-c2ccc(C(F)(F)F)cc2O)n3C)C1 (single isomer, unassigned) [Example 19, 2-(1-methyl-5-((1-methylpyrrolidin-3-yl)amino)-1H-imidazo[4,5-b]pyridin-2-yl)-5-(trifluoromethyl)phenol] | < 100 nM | – |
| Cc1cc(C(F)(F)F)cc(O)c1-c1nc2nc(N[C@@H]3CCC[C@@H](O)C3)ccc2n1C (single isomer, unassigned) [Example 21, 2-(5-((3-hydroxycyclohexyl)amino)-1-methyl-1H-imidazo[4,5-b]pyridin-2-yl)-3-methyl-5-(trifluoromethyl)phenol] | 100 to 1000 nM | – |
